Results published in patent US9962350B2, “Agent for improving normal development rate of fertilized eggs” (SBI Pharmaceuticals Co., Ltd., priority 2014, dated 2018).

System: C57BL/6J in vitro fertilized eggs
Test: Low-temperature in vitro culture of in vitro fertilization-derived fertilized eggs in KSOM or mWM with ALA; embryo development
Type: cell-based, mouse
Experimental: 5 U (units) of equine chorionic gonadotropin (serum gonadotropin) (ASKA Pharmaceutical Co., Ltd.) were intraperitoneally administered to each female mouse of the C57BL/6J lineage (3.9 weeks old to 4.0 weeks old). […], 5 U (units) of gonadotropin (human chorionic gonadotropin) (ASKA Pharmaceutical Co., Ltd.) were intraperitoneally administered thereto for controlled ovarian hyperstimulation. 15 hours after the administration of gonadotropin, the oviducts were recovered by opening the abdomens. In mineral oil, the ampullae of the oviducts were incised with a dissecting needle, and the ova were recovered into a drop of mHTF medium (ARK Resource Co., Ltd.). Sperms were recovered from the cauda epididymides of C57BL/6J male mice and cultured in mHTF medium at 37° C. for 40 minutes to 1 hour under 5% CO2 conditions for capacitation. 2 μl to 4 μl of the mHTF medium containing the sperms was added to the medium drop containing the recovered ova for insemination, and cultured at 37° C. under 5% CO2 conditions. 4 hours to 6 hours after the insemination, the fertilized eggs were washed with KSOM (ARK Resource Co., Ltd.) or mWM (ARK Resource Co., Ltd.) to remove cumulus cells and sperms. The fertilized eggs were temporarily cultured in KSOM or mWM in an incubator of 37° C. and 5% CO2 until all of the fertilized eggs were recovered.
25 of the fertilized eggs per drop were transferred to a drop (covered with mineral oil (Sigma-Aldrich Corp.)) consisting of 100 μl of ALA-unsupplemented or ALA-supplemented (1 μM or 3 μM) medium (KSOM or mWM). Subsequently, the fertilized eggs were cultured under three conditions: a condition of 37° C. and 5% CO2, a condition of 35° C. and 5% CO2, and a condition of 35.5° C. and 5% CO2. The number of 2-cell eggs was counted 24 hours after the ovum recovery, and the number of blastocysts was counted 96 hours thereafter. Since the development of fertilized eggs obtained by in vitro fertilization is slightly slow, the number of blastocysts was also counted 120 hours after the ovum recovery. The development rate of embryos at each culture time was calculated on the basis of the number of 2-cell embryos 24 hours postfertilization defined as 100%. The results about KSOM are shown in Tables 14 and 15 and FIGS. 9 and 11. The results about mWM are shown in Tables 16 and 17 and FIGS. 10, 12, and 13.

NCC(=O)CCC(=O)O [ALA, 5-aminolevulinic acid] was tested, and the “The number of developed embryos in KSOM” value (35° C., 1 μM ALA, 24 hr) was 61, the “The number of developed embryos in KSOM” value (35° C., 1 μM ALA, 48 hr) was 27 and the “development rate with the number of 2-cell embryos 24 hours postfertilization in KSOM defined as 100%” value (from here on “development rate … in KSOM defined as 100%”) (35° C., 1 μM ALA, 48 hr) was 44%. The “The number of developed embryos in KSOM” value (35° C., 1 μM ALA, 72 hr) was 26, the “development rate … in KSOM defined as 100%” value (35° C., 1 μM ALA, 72 hr) was 43% and the “The number of developed embryos in KSOM” value (35° C., 1 μM ALA, 120 hr) was 22. For the same molecule, the “development rate … in KSOM defined as 100%” value (35° C., 1 μM ALA, 120 hr (blastocysts)) was 36%, the “The number of developed embryos in mWM” value (35° C., 1 μM ALA, 24 hr) was 51 and the “The number of developed embryos in mWM” value (35° C., 1 μM ALA, 48 hr) was 55. For the same molecule, the “development rate with the number of 2-cell embryos 24 hours postfertilization in mWM defined as 100%” value (“development rate … in mWM defined as 100%” for short) (35° C., 1 μM ALA, 48 hr) was 108%, the “The number of developed embryos in mWM” value (35° C., 1 μM ALA, 72 hr) was 46 and the “development rate … in mWM defined as 100%” value (35° C., 1 μM ALA, 72 hr) was 90%. For the same molecule, the “The number of developed embryos in mWM” value (35° C., 1 μM ALA, 96 hr) was 29, the “development rate … in mWM defined as 100%” value (35° C., 1 μM ALA, 96 hr (blastocysts)) was 53% and the “The number of developed embryos in KSOM” value (35° C., 3 μM ALA, 24 hr) was 60. For the same molecule, the “The number of developed embryos in KSOM” value (35° C., 3 μM ALA, 48 hr) was 29, the “development rate … in KSOM defined as 100%” value (35° C., 3 μM ALA, 48 hr) was 48% and the “The number of developed embryos in KSOM” value (35° C., 3 μM ALA, 72 hr) was 27. The “development rate … in KSOM defined as 100%” value (35° C., 3 μM ALA, 72 hr) was 45%, the “The number of developed embryos in KSOM” value (35° C., 3 μM ALA, 120 hr) was 16 and the “development rate … in KSOM defined as 100%” value (35° C., 3 μM ALA, 120 hr (blastocysts)) was 27%. The “The number of developed embryos in mWM” value (35° C., 3 μM ALA, 24 hr) was 52, the “The number of developed embryos in mWM” value (35° C., 3 μM ALA, 48 hr) was 44 and the “development rate … in mWM defined as 100%” value (35° C., 3 μM ALA, 48 hr) was 85%. For the same molecule, the “The number of developed embryos in mWM” value (35° C., 3 μM ALA, 72 hr) was 27, the “development rate … in mWM defined as 100%” value (35° C., 3 μM ALA, 72 hr) was 52% and the “The number of developed embryos in mWM” value (35° C., 3 μM ALA, 96 hr) was 20. For the same molecule, the “development rate … in mWM defined as 100%” value (35° C., 3 μM ALA, 96 hr (blastocysts)) was 38%, the “The number of developed embryos in mWM” value (35.5° C., 1 μM ALA, 24 hr) was 60 and the “The number of developed embryos in mWM” value (35.5° C., 1 μM ALA, 48 hr) was 60. For the same molecule, the “development rate … in mWM defined as 100%” value (35.5° C., 1 μM ALA, 48 hr) was 100%, the “The number of developed embryos in mWM” value (35.5° C., 1 μM ALA, 72 hr) was 49 and the “development rate … in mWM defined as 100%” value (35.5° C., 1 μM ALA, 72 hr) was 82%. For the same molecule, the “The number of developed embryos in mWM” value (35.5° C., 1 μM ALA, 96 hr) was 42, the “development rate … in mWM defined as 100%” value (35.5° C., 1 μM ALA, 96 hr (blastocysts)) was 70% and the “The number of developed embryos in mWM” value (35.5° C., 3 μM ALA, 24 hr) was 52. For the same molecule, the “The number of developed embryos in mWM” value (35.5° C., 3 μM ALA, 48 hr) was 52, the “development rate … in mWM defined as 100%” value (35.5° C., 3 μM ALA, 48 hr) was 100% and the “The number of developed embryos in mWM” value (35.5° C., 3 μM ALA, 72 hr) was 46. The “development rate … in mWM defined as 100%” value (35.5° C., 3 μM ALA, 72 hr) was 88%, the “The number of developed embryos in mWM” value (35.5° C., 3 μM ALA, 96 hr) was 39 and the “development rate … in mWM defined as 100%” value (35.5° C., 3 μM ALA, 96 hr (blastocysts)) was 75%.
